Data from patent publication US6921821B2, “Antagonists of melanin concentrating hormone receptor” (Abbott Laboratories, priority 2002, dated 2005).
Structures can show the parent of a compound that is named as a salt.

These molecules were tested against T1, murine MCHR (Mus musculus, UniProt Q8JZL2) (assay: Assay for release of intracellular calcium (FLIPR, Fluo-4), inhibition of MCH-induced Ca++ flux). Settings: test compound at a dose of 10 μM, HEK293 cells expressing the murine MCHR, read-out: inhibition of MCH (MCH induced Ca++ flux / fluorescence).
T1 construct: expressed in transfected cells; host or cells: HEK293
T1 sequence (Q8JZL2 whole entry): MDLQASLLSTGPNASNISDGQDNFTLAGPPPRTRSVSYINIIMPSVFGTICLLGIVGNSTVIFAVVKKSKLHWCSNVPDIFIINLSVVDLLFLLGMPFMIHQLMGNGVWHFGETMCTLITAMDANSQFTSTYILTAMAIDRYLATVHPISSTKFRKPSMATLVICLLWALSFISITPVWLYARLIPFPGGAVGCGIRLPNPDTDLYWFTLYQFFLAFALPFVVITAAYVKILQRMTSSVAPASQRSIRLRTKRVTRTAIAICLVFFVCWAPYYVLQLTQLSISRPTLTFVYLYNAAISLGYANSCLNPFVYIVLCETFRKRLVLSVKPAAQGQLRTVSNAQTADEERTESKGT
Assay type: cell-based
Protocol: Assay for Release of Intracellular Calcium
Activation of the melanin concentrating hormone receptor (MCHR) by MCH induces the release of Ca^++ from intracellular stores. This intracellular calcium release is measured using a fluorometric imaging plate reader (FLIPR™, Molecular Devices Corp.) in conjunction with the Ca^++-sensitive dye Fluo-4. Release of Ca^++ from intracellular stores causes an increase in fluorescence of the dye that is proportional to Ca^++ concentration. Briefly, the assays are performed as follows. HEK293 cells expressing the murine MCHR are plated overnight at 50,000 cells/well in 96-well plates. The following day, culture medium is removed and replaced with 100 μl/well of D-PBS (+glucose and sodium pyruvate) containing 2.5 μM Fluo-4AM (Molecular Probes), 0.01% Pluronic F-127 and 2.5 mM probenecid. Cells are loaded with the Fluo-4 dye for at least one hour at room temp. After loading, the cells are washed gently to remove extracellular dye and 100 μl of D-PBS (+glucose and sodium pyruvate) is added to each well. Test compounds are prepared at 40 μM in 4% DMSO. The cell plate is placed in the FLIPR™ and 50 μl/well of test compound is delivered. The calcium signal is followed for 3 minutes to assay for potential agonist activity by the test compounds. Then 50 μl/well of 12 nM mouse MCH (in D-PBS containing 0.1% BSA) is added and the ligand-induced calcium signal is followed for an additional 3 minutes. Antagonist activity as determined by the test compounds ability to inhibit MCH induced Ca^++ flux is calculated as % inhibition as described by the following formula: % inhibition=[1−((fTC−fB)÷(fMCH−fB))]×100, where fTC=MCH-induced fluorescence in the presence of test compound; fMCH=MCH-induced fluorescence in the absence of test compound; and fB=Baseline fluorescence.
MCH (3 nM) usually elicits a response of 30,000-40,000 relative fluorescence units (RFU) with a baseline of about 1000 RFU. Fluo-4 fluorescence is measured at 488 nm, with an exposure of 0.40 sec. and F-stop=2.0 and the laser set at 0.40-0.60 W constant light output.

Q: C/C(=C\c1ccccc1)CN1CCC(Nc2cc(=O)oc3ccc(Cl)cc23)CC1 [III-18, 6-Chloro-4-[1-(2-methyl-3-phenyl-allyl)-piperidin-4-ylamino]-chromen-2-one] was tested. Which inhibition at 10 µM did it give?
A: The inhibition at 10 µM was no less than 50%.

Q: With COc1ccc2oc(=O)cc(NC3CCN(Cc4cccc5ccccc45)CC3)c2c1 [II-66, 6-Methoxy-4-(1-naphthalen-1-ylmethyl-piperidin-4-ylamino)-chromen-2-one trifluoroacetate] as the molecule, how does the inhibition at 10 µM read?
A: Its inhibition at 10 µM is no less than 50%.

Q: For COc1ccc2oc(=O)cc(NC3CCN(C/C=C/c4ccccc4)CC3)c2c1 [III-1, 6-Methoxy-4-[1-(3-phenyl-allyl)-piperidin-4-ylamino] chromen-2-one], which inhibition at 10 µM is on record?
A: The inhibition at 10 µM was no less than 50%.

Q: With O=c1cc(NC2CCN(Cc3ccc4c(c3)OCO4)CC2)c2cc(C(F)(F)F)ccc2o1 [II-82, 4-(1-Benzo[1,3]dioxol-5-ylmethyl-piperidin-4-ylamino)-6-trifluoromethyl-chromen-2-one] as the molecule, how does the inhibition at 10 µM read?
A: Its inhibition at 10 µM is no less than 50%.

Q: Which inhibition at 10 µM does the source give for O=c1cc(NC2CCN(Cc3ccc4cnccc4c3)CC2)c2cc(Cl)ccc2o1 [II-73, 6-Chloro-4-(1-isoquinolin-6-ylmethyl-piperidin-4-ylamino)-chromen-2-one] here?
A: The inhibition at 10 µM was no less than 50%.

Q: With COc1ccc2oc(=O)cc(NC3CCN(Cc4ccc5[nH]ccc5c4)CC3)c2c1 [II-54, 4-[1-(1H-Indol-5-ylmethyl)-piperidin-4-ylamino]-6-methoxy-chromen-2-one] as the molecule, how does the inhibition at 10 µM read?
A: Its inhibition at 10 µM is no less than 50%.

Q: For COc1ccc2oc(=O)cc(NC3CCN(Cc4ccc(C(=O)NCCN5CCCCC5)cc4)CC3)c2c1 [II-69, 4-[4-(6-Methoxy-2-oxo-2H-chromen-4-ylamino)-piperidin-1-ylmethyl]-N-(2-piperidin-1-yl-ethyl)-benzamide; Double TFA Salt], which inhibition at 10 µM is on record?
A: Its inhibition at 10 µM is no less than 50%.

Q: COc1ccc2oc(=O)cc(NC3CCN(Cc4ccc(OCCCN(C)C)cc4)CC3)c2c1 [II-91] was tested. Which inhibition at 10 µM did it give?
A: The inhibition at 10 µM was no less than 50%.

Q: Which inhibition at 10 µM does the source give for O=c1cc(NC2CCN(Cc3ccc(OCCCN4CCCCC4)cc3)CC2)c2cc(Cl)ccc2o1 [II-49, 6-Chloro-4-{1-[4-(3-piperidin-1-yl-propoxy)-benzyl]-piperidin-4-ylamino}-chromen-2-one; Double TFA Salt] here?
A: The inhibition at 10 µM was no less than 50%.

Q: Which inhibition at 10 µM does the source give for COc1ccc2oc(=O)cc(NC3CCN(Cc4ccc(C(=O)N5CCN(Cc6ccccc6)CC5)cc4)CC3)c2c1 [II-94, 4-{1-[4-(4-Benzyl-piperazine-1-carbonyl)-benzyl]-piperidin-4-ylamino}-6-methoxy-chromen-2-one; Double TFA Salt] here?
A: Its inhibition at 10 µM is no less than 50%.

Q: For Cn1c(=O)cc(NC2CCN(C/C=C/c3ccccc3)CC2)c2ccccc21 [Compound V-47, 1-Methyl-4-[1-(3-phenyl-allyl)-piperidin-4-ylamino]-1H-quinolin-2-one], which inhibition at 10 µM is on record?
A: Its inhibition at 10 µM is no less than 50%.

Q: How did the inhibition at 10 µM turn out when O=c1cc(NC2CCN(Cc3ccc4c(c3)OCO4)CC2)c2cc(OC(F)(F)F)ccc2o1 [II-96, 4-(1-Benzo[1,3]dioxol-5ylmethyl-piperidin-4-ylamino)-6-trifluoromethoxy-chromen-2-one] was run?
A: The inhibition at 10 µM was no less than 50%.

Q: With CC(c1ccc(Cl)cc1)N1CCC(Nc2cc(=O)oc3ccc(Cl)cc23)CC1 (centres unmarked) [II-74, 6-Chloro-4-{1-[1-(4-chloro-phenyl)-ethyl]-piperidin-4-ylamino}-chromen-2-one] as the molecule, how does the inhibition at 10 µM read?
A: Its inhibition at 10 µM is no less than 50%.

Q: How did the inhibition at 10 µM turn out when Cn1c(=O)cc(NC2CCN(Cc3ccc4c(c3)OCO4)CC2)c2cc(C(F)(F)F)ccc21 [Compound V-31, 4-(1-Benzo[1,3]dioxol-5-ylmethyl-piperidin-4-ylamino)-1-methyl-6-trifluoromethyl-1H-quinolin-2-one] was run?
A: The inhibition at 10 µM was no less than 50%.

Q: With O=c1cc(NC2CCN(Cc3ccc4c(c3)OCO4)CC2)c2cc(Cl)c(Cl)cc2o1 [II-117, (4-Benzo[1,3]dioxol-5-ylmethyl-piperidin-4-ylamino)-6,7-dichloro-chromen-2-one] as the molecule, how does the inhibition at 10 µM read?
A: Its inhibition at 10 µM is no less than 50%.

Q: How did the inhibition at 10 µM turn out when Cc1ccc2oc(=O)cc(NC3CCN(C/C=C/c4ccccc4[N+](=O)[O-])CC3)c2c1 [III-12, 6-Methyl-4-{1-[3-(2-nitro-phenyl)-allyl]-piperidin-4-ylamino}-chromen-2-one] was run?
A: Its inhibition at 10 µM is no less than 50%.

Q: How did the inhibition at 10 µM turn out when COc1ccc(CN2CCC(Nc3c(C(=O)N(C)C)c(=O)n(C)c4ccc(Cl)cc34)CC2)cc1F [Compound V-54, 6-Chloro-4-[1-(3-fluoro-4-methoxy-benzyl)-piperidin-4-ylamino]-1-methyl-2-oxo-1,2-dihydro-quinoline-3-carboxylic acid dimethylamide] was run?
A: Its inhibition at 10 µM is no less than 50%.

Q: With O=c1cc(NC2CCN(Cc3cccc4ccccc34)CC2)c2cc(Cl)ccc2o1 [II-5, 6-Chloro-4-(1-naphthalen-1-ylmethyl-piperidin-4-ylamino)-chromen-2-one] as the molecule, how does the inhibition at 10 µM read?
A: The inhibition at 10 µM was no less than 50%.

Q: How did the inhibition at 10 µM turn out when COc1ccc2oc(=O)cc(NC3CCN(Cc4ccc(C)c(F)c4)CC3)c2c1 [II-105, 4-[1-(3-Fluoro-4-methyl-benzyl)-piperidin-4-ylamino]-6-methoxy-chromen-2-one trifluoroacetate] was run?
A: The inhibition at 10 µM was no less than 50%.

Q: How did the inhibition at 10 µM turn out when Cn1c(=O)cc(NC2CCN(C/C=C/c3ccccc3)CC2)c2cc(Cl)ccc21 [Compound V-29, 6-Chloro-1-methyl-4-[1-(3-phenyl-allyl)-piperidin-4-ylamino]-1H-quinolin-2-one] was run?
A: Its inhibition at 10 µM is no less than 50%.

Q: For O=c1cc(NC2CCN(C/C=C/c3ccccc3)CC2)c2ccccc2o1 [III-24, 4-[1-(3-Phenyl-allyl)-piperidin-4-ylamino]-chromen-2-one], which inhibition at 10 µM is on record?
A: The inhibition at 10 µM was no less than 50%.

Q: For COc1ccc2oc(=O)cc(NC3CCN(Cc4ccc(C)cc4C)CC3)c2c1 [II-25, 4-[1-(2,4-Dimethyl-benzyl)-piperidin-4-ylamino]-6-methoxy-chromen-2-one trifluoroacetate], which inhibition at 10 µM is on record?
A: Its inhibition at 10 µM is no less than 50%.

Q: Which inhibition at 10 µM does the source give for O=c1cc(NC2CCN(Cc3ccc4ccccc4c3)CC2)c2cc(Cl)ccc2n1Cc1ccncc1 [Compound V-5, 6-Chloro-4-(1-naphthalen-2-ylmethyl-piperidin-4-ylamino)-1-pyridin-4-ylmethyl-1H-quinolin-2-one] here?
A: Its inhibition at 10 µM is no less than 50%.

Q: Which inhibition at 10 µM does the source give for COC(=O)c1c(NC2CCN(Cc3ccc4c(c3)OCO4)CC2)c2cc(Cl)ccc2n(C)c1=O [Compound V-39, 4-(1-Benzo[1,3]dioxol-5-ylmethyl-piperidin-4-ylamino)-6-chloro-1-methyl-2-oxo-1,2-dihydro-quinoline-3-carboxylic acid methyl ester] here?
A: The inhibition at 10 µM was no less than 50%.

Q: How did the inhibition at 10 µM turn out when CCOc1ccc(CN2CCC(Nc3cc(=O)oc4ccc(OC)cc34)CC2)cc1 [II-80, 4-[1-(4-Ethoxy-benzyl)-piperidin-4-ylamino]-6-methoxy-chromen-2-one trifluoroacetate] was run?
A: The inhibition at 10 µM was no less than 50%.

Q: O=c1cc(NC2CCN(Cc3ccc4c(c3)OCO4)CC2)c2cc(Cl)ccc2o1 [II-4, 4-(1-Benzo[1,3]dioxol-5ylmethyl-piperidin-4-ylamino)-6-chloro-chromen-2-one] was tested. Which inhibition at 10 µM did it give?
A: The inhibition at 10 µM was no less than 50%.

Q: O=c1cc(NC2CCN(C/C=C/c3ccccc3)CC2)c2ccccc2n1Cc1ccccc1 [Compound V-44, 1-Benzyl-4-[1-(3-phenyl-allyl)-piperidin-4-ylamino]-1H-quinolin-2-one] was tested. Which inhibition at 10 µM did it give?
A: Its inhibition at 10 µM is no less than 50%.

Q: Which inhibition at 10 µM does the source give for CC(=O)c1ccc(CN2CCC(Nc3cc(=O)oc4ccc(Cl)cc34)CC2)cc1 [II-48, 4-[1-(4-Acetyl-benzyl)-piperidin-4-ylamino]-6-chloro-chromen-2-one] here?
A: The inhibition at 10 µM was no less than 50%.

Q: How did the inhibition at 10 µM turn out when COc1ccc2oc(=O)cc(NC3CCN(Cc4ccc5c(ccn5C)c4)CC3)c2c1 [II-111, 6-Methoxy-4-[N-methylindole-5-ylmethyl-piperidin-4-ylamino]chromen-2-one] was run?
A: The inhibition at 10 µM was no less than 50%.

Q: Which inhibition at 10 µM does the source give for O=c1cc(NC2CCN(Cc3ccc4cc[nH]c4c3)CC2)c2cc(Cl)ccc2o1 [II-31, 6-Chloro-4-[1-(1H-indol-6-ylmethyl)-piperidin-4-ylamino]-chromen-2-one] here?
A: Its inhibition at 10 µM is no less than 50%.

Q: With O=c1cc(NC2CCN(Cc3ccc4ccccc4c3)CC2)c2cc(OC(F)F)ccc2o1 [II-32, 6-Difluoromethoxy-4-(1-naphthalen-2-ylmethyl-piperidin-4-ylamino)-chromen-2-one] as the molecule, how does the inhibition at 10 µM read?
A: The inhibition at 10 µM was no less than 50%.

Q: For O=c1cc(NC2CCN(Cc3ccc(Cl)cc3)CC2)c2cc(Cl)ccc2o1 [II-59, 6-Chloro-4-{1-(4-chloro-benzyl)-piperidin-4-ylamino}-chromen-2-one], which inhibition at 10 µM is on record?
A: Its inhibition at 10 µM is no less than 50%.

Q: For N#Cc1ccc2oc(=O)cc(NC3CCN(C/C=C/c4ccccc4)CC3)c2c1 [III-59, 2-Oxo-4-[1-(3-phenyl-allyl)-piperidin-4-ylamino]-2H-chromene-6-carbonitrile], which inhibition at 10 µM is on record?
A: Its inhibition at 10 µM is no less than 50%.

Q: How did the inhibition at 10 µM turn out when O=c1cc(NC2CCN(C/C=C/c3ccccc3)CC2)c2cc(Cl)ccc2o1 [III-3, 6-Chloro-4-[1-(3-phenyl-allyl)-piperidin-4-ylamino]-chromen-2-one] was run?
A: The inhibition at 10 µM was no less than 50%.

Q: Which inhibition at 10 µM does the source give for O=c1cc(NC2CCN(C/C=C/c3ccccc3F)CC2)c2ccccc2o1 [III-14, 4-{1-[3-(2-Fluoro-phenyl)-allyl]-piperidin-4-ylamino}-chromen-2-one] here?
A: The inhibition at 10 µM was no less than 50%.
